According to patent publication US20250051519A1, “SOLUTION ELECTROSPUN FIBERS, COMPOSITIONS COMPRISING THE SAME AND A PROCESS OF MANUFACTURING THEREOF” (UNIVERSITEIT GENT, priority 2021, published 2025):

Assays:
[1] = Sink in vitro dissolution test of flubendazole samples in 0.1 M HCl; type: physicochemical; conditions: after 10 minutes, sample containing 50 mg flubendazole in 900 ml 0.1 M HCl
Procedure: Samples were filtered through a 0.45 μm PTFE filter, diluted and consequently measured via UV-Vis spectroscopy. Experiments were performed in triplicate.

[2] = In vivo bioavailability study, oral capsules, plasma levels by LC-MS; conditions: dog; analyte Flu in plasma; oral capsule with 200 mg Flu, fasted Beagle dogs, n=5
Procedure: Capsules of a 00 size were filled with either 50 wt % Flu-PEtOx nanofibrous material or with pure crystalline Flu. Each capsule contained 200 mg of Flu. These capsules were administered to beagles in 2 different sessions with at least 8 days in between both sessions. The study was approved by the ethical commission for animal testing at Ghent University. Before the dogs were fed the capsules, a fasting time of 12 hours was set. Using an intravenous catheter in the vena cephalica blood samples of 3 ml were collected at different time intervalls of 0.5, 1, 2, 4, 6, 8, 12, 16, 20 and 24 hours after administration. Plasma samples were stored at −20° C. until analyzed using an LC-MS method.
A […] flubendazole nanofibrous amorphous solid dispersion was obtained by the solution electrospinning of PEtOx and Flu in a formic acid solvent system. The process conditions were a tip to collector distance of 15 cm, a flow rate of 0.12 ml/h and a voltage of 27.5 kV. Note that this high flubendazole loading was only reached when a PEtOx wt % was used which is lower compared to the minimal required polymer concentration for solution electrospinning pure PEtOx, as shown in Example 4. […] Concentrations of Flu and its two metabolites, H-Flu and R-Flu, were monitored.

Dissolution rate (10 min) [1]: 0.07 ± 0.03 µg/mL/min
Cmax [2]: 1.2 ± 0.4 ng/mL
Tmax [2]: 1 ± 0.6 h
SMILES: COC(=O)Nc1nc2cc(C(=O)c3ccc(F)cc3)ccc2[nH]1 [Flu, Flubendazole]
